Assay results published in US20250197368A1 (priority 2020, published 2025).

What was measured:
[1] = molecular target: human α2β3γ2 GABAARs (benzodiazepine site) (Homo sapiens (Human), UniProt P18507+P47869); assay: In vitro radioligand binding assay ([3H]Ro15-1788 displacement), α2-GABAAR Ki
How it was run: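 Ki derived via Cheng-Prusoff from IC50 for displacement of 4 nM [3H]Ro15-1788 (Kd from saturation binding), with 1-3 μM TP003 defining nonspecific binding. Incubation lasted 1 h at 4° C on membranes of induced L(tk−) cells stably transfected with the human subunits; detection by filtration and scintillation counting.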

human α2β3γ2 GABAARs = assay: In vitro electrophysiological recording assay (automated patch-clamp), α2-GABAAR relative efficacy; assay type: cell-based; details: % efficacy normalised to diazepam; GABA EC10-20; concentration generally >= 100 times Ki
How it was run: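 Relative efficacy is % enhancement of the leak-subtracted GABA EC10-20 peak current, divided by the separately measured diazepam value; compound generally tested at ≥100× Ki after ≥1 min pre-application. Recordings at room temperature, human receptors stably expressed in L(tk^−) (QPatch, −65 mV) or HEK293 (SyncroPatch, −80 mV) cells.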

Chain of human α2β3γ2 GABAARs (benzodiazepine site) (P47869 29-451): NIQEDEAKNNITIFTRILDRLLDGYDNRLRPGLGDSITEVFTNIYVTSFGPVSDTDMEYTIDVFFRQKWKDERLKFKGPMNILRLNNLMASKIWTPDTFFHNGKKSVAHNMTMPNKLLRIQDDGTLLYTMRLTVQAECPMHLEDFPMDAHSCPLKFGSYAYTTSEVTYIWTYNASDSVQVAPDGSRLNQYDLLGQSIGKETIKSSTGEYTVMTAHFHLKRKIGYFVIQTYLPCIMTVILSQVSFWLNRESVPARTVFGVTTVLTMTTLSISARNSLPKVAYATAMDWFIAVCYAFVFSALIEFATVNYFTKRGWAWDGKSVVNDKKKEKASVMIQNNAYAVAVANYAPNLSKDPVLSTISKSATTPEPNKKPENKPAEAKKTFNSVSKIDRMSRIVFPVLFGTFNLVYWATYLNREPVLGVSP
Chain of human α2β3γ2 GABAARs (benzodiazepine site) (P28472 26-473 partner): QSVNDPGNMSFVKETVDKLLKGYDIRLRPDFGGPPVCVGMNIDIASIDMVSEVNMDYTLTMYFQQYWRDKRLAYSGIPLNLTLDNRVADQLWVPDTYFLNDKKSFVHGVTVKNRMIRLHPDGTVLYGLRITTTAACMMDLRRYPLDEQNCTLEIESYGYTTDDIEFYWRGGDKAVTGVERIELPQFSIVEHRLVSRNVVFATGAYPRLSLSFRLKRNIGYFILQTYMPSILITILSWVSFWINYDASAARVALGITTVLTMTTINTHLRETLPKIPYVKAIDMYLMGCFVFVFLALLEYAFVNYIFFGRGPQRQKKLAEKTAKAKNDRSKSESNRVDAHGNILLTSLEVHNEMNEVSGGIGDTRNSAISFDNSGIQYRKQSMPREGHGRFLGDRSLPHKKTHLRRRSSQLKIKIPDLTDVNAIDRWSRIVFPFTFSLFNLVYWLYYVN
Chain of human α2β3γ2 GABAARs (benzodiazepine site) (P18507 40-475): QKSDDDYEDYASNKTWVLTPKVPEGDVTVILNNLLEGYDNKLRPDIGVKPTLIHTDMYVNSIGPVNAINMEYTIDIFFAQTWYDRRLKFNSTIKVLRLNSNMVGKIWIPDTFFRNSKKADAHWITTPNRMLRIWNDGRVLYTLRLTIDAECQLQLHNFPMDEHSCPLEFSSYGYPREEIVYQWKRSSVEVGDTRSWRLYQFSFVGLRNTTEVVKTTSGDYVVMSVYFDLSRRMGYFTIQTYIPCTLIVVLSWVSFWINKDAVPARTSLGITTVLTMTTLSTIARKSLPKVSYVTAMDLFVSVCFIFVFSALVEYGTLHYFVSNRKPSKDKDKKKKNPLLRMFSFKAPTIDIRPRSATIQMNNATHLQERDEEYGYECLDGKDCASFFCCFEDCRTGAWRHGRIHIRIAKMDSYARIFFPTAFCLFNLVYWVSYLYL

Structure (SMILES) | Ki [1] | α2-GABAAR Relative Efficacy (vs. Diazepam) (human α2β3γ2 GABAARs)
CCCNC(=O)c1c(N)c2cccc(-c3cn(C)nc3C)c2n(CC)c1=O [Example 83, 4-Amino-8-(1,3-dimethylpyrazol-4-yl)-1-ethyl-2-oxo-N-propyl-quinoline-3-carboxamide] | 15.7 nM | 0.40
CCCNC(=O)c1c(N)c2cccc(-c3cc(OCc4ccccn4)ccc3C)c2[nH]c1=O [Example 86, 4-Amino-8-[2-methyl-5-(2-pyridylmethoxy)phenyl]-2-oxo-N-propyl-1H-quinoline-3-carboxamide] | 1.71 nM | 0.28
CCCNC(=O)c1c(N)c2cccc(-c3cccc(OCc4ccccn4)c3)c2[nH]c1=O [Example 87, 4-Amino-2-oxo-N-propyl-8-[3-(2-pyridylmethoxy)phenyl]-1H-quinoline-3-carboxamide] | 1.78 nM | 0.24
CCCNC(=O)c1c(N)c2cccc(-c3cc(OCc4cccc(OC)n4)ccc3F)c2[nH]c1=O [Example 89, 4-Amino-8-[2-fluoro-5-[(6-methoxy-2-pyridyl)methoxy]phenyl]-2-oxo-N-propyl-1H-quinoline-3-carboxamide] | 1.55 nM | 0.3
CCCNC(=O)c1c(N)c2cccc(-c3cc(OCc4cccc(C(F)(F)F)n4)ccc3F)c2[nH]c1=O [Example 90, 4-Amino-8-[2-fluoro-5-[[6-(trifluoromethyl)-2-pyridyl]methoxy]phenyl]-2-oxo-N-propyl-1H-quinoline-3-carboxamide] | 3 nM | 0.18
CCCNC(=O)c1c(N)c2cccc(-c3cc(OCc4ccc(F)cn4)ccc3C)c2[nH]c1=O [Example 93] | 1.63 nM | 0.34
CCCNC(=O)c1c(N)c2cccc(-c3cccc(OCc4ccc(F)cn4)c3)c2[nH]c1=O [Example 94, 4-Amino-8-[3-[(5-fluoro-2-pyridyl)methoxy]phenyl]-2-oxo-N-propyl-1H-quinoline-3-carboxamide] | 2.42 nM | 0.28
CCCNC(=O)c1c(N)c2cccc(-c3cc(OCc4ccc(C)cn4)ccc3F)c2[nH]c1=O [Example 95, 4-Amino-8-[2-fluoro-5-[(5-methyl-2-pyridyl)methoxy]phenyl]-2-oxo-N-propyl-1H-quinoline-3-carboxamide] | 0.44 nM | 0.22
CCCNC(=O)c1c(N)c2cccc(-c3cc(OCc4ccc(OC)cn4)ccc3F)c2[nH]c1=O [Example 96, 4-Amino-8-[2-fluoro-5-[(5-methoxy-2-pyridyl)methoxy]phenyl]-2-oxo-N-propyl-1H-quinoline-3-carboxamide] | 0.92 nM | 0.24
CCCNC(=O)c1c(N)c2cccc(-c3cc(OCc4ccc(Cl)cn4)ccc3F)c2[nH]c1=O [Example 97, 4-Amino-8-[5-[(5-chloro-2-pyridyl)methoxy]-2-fluoro-phenyl]-2-oxo-N-propyl-1H-quinoline-3-carboxamide] | 0.72 nM | 0.25
CCCNC(=O)c1c(N)c2cccc(-c3cc(OCc4ccc(C(F)(F)F)cn4)ccc3F)c2[nH]c1=O [Example 98, 4-Amino-8-[2-fluoro-5-[[5-(trifluoromethyl)-2-pyridyl]methoxy]phenyl]-2-oxo-N-propyl-1H-quinoline-3-carboxamide] | 0.61 nM | 0.29
CCCNC(=O)c1c(N)c2cccc(-c3cc(OCc4ccc(C#N)cn4)ccc3F)c2[nH]c1=O [Example 99, 4-Amino-8-[5-[(5-cyano-2-pyridyl)methoxy]-2-fluoro-phenyl]-2-oxo-N-propyl-1H-quinoline-3-carboxamide] | 0.24 nM | 0.28
CCCNC(=O)c1c(N)c2cccc(-c3cc(OCc4cc(OC)ccn4)ccc3F)c2[nH]c1=O [Example 100, 4-Amino-8-[2-fluoro-5-[(4-methoxy-2-pyridyl)methoxy]phenyl]-2-oxo-N-propyl-1H-quinoline-3-carboxamide] | 0.07 nM | 0.18
